Experimental data reported in US8829049B2, “Medicinal composition intended for the treatment of erectile dysfunction in mammals and use of the composition” (ACEF S.A., priority 2009, dated 2014).
Entries after “also recorded” stand apart in the source; their conditions may differ. Counter-ions that a name gives are not always drawn.

What was measured:
[1] = molecular target: phosphodiesterase 5 (PDE-5) (Homo sapiens, UniProt O76074); assay: activity test for the enzyme phosphodiesterase 5 (PDE-5); type: biochemical; conditions: PDE-5 enzyme activity; read-out: 50% effective dose (DE50)
[2] = heart rate and adverse signs in the treated mice; type: in vivo; conditions: for Heart rate, AVERAGE, after: after administration; for Heart rate, AVERAGE, before: before administration; for adverse signs observed (tachycardia, shaking): intraperitoneal, Group I sildenafil citrate, Group III cubebin
Protocol: (§1) 42 Swiss mice have been used, adults, between 18 and 24 weeks old, weighing between 25 and 35 grams, from the Biotherium of the University of Franca (UNIFRAN), which were confined in plastic cages with metal fences and fed with standard feed (Labina-Purina) and water ad libitum, at room temperature of 22° C.
After a period of adaptation, the animals have been divided into seven groups, as per Table 1 below: […]

[3] = tested on: patients; conditions: cited from earlier work; for interaction with nitrates: combination with nitroglycerin / organic nitrates; for adverse effects: patients
[4] = cited from earlier work
[5] = tested on: Swiss mice; assay: vasodilating effect / penile erection test in Swiss mice, intraperitoneal administration, with penile histology; type: in vivo
Protocol: as §1
After a period of adaptation, the animals have been divided into seven groups, as per Table 1 below:
Animals from all groups have been kept under the same conditions for four hours for later evaluation of the studied pharmacological effect. They were subsequently anesthetized with a solution of 1.5 mg of ketamine plus 0.1 mg of xylazine and then euthanized to take off the penile tissue. Each sample was immediately stocked in 10% formaldehyde to make histological slides.

Compound	EC50 [1]	Heart rate, AVERAGE, after [2]	Heart rate, AVERAGE, before [2]	adverse signs observed (tachycardia, shaking) [2]	interaction with nitrates [3]	adverse effects [3]	other results
OC1OC[C@H](Cc2ccc3c(c2)OCO3)[C@H]1Cc1ccc2c(c1)OCO2 (mixture of isomers) [cubebin]	16.6 ± 8.2 µM	553.5	621.7	not causing tachycardia or shaking			
CN1CC(=O)N2[C@H](c3ccc4c(c3)OCO4)c3[nH]c4ccccc4c3C[C@@H]2C1=O [Tadalafil]					modest synergic effects	patients did not have red skin	
CCCc1nc(C)c2c(=O)[nH]c(-c3cc(S(=O)(=O)N4CCN(CC)CC4)ccc3OCC)nn12 [Vardenafil]					minimum changes in heart rate and blood pressure		time to maximum plasma concentration ([4]; single doses of 10 or 20 mg): ≤ 0.7 h
O[C@H]1OC[C@H](Cc2ccc3c(c2)OCO3)[C@H]1Cc1ccc2c(c1)OCO2 [cubebin]							ejaculation after treatment ([5]; mice of Group III, FIGS. 4c and 4d): ejaculating after said treatment; penile erection / sexual behaviour observed ([5]; mice, intraperitoneal, Group I sildenafil citrate, Group III 20 mg/kg cubebin): prolonged erection and licked the penis; also recorded: penile erection; histology of corpus cavernosum ([5]; mouse penile tissue, H. E., 400×): void space very dilated and congested
CCCc1nn(C)c2c(=O)[nH]c(-c3cc(S(=O)(=O)N4CCN(C)CC4)ccc3OCC)nc12 [sildenafil citrate]		627.75	628.5	tachycardia, shaking and testicle tumescence		cephalea, red skin, dyspepsia, nose congestion and visual disturbances	deaths related to the drug reported ([3]; in vivo): More than 500 deaths; rate of deaths ([3]; in vivo): fifty; half life in circulation ([4]; in vivo): four
hydroethylic desildenafil citrate	38.4 ± 1.8 µM						
